Experiments:
[1] = tested on: PC-9 cells; assay: MTT cytotoxicity assay, PC-9 cells; format: cell-based; conditions: Homo sapiens, PC-9, 48 h, PC-9 cells, 48 h, MTT; read-out: IC50
Procedure: (§1) The cytotoxicity and viability of human NSCLC cells and normal cells were determined by MTT assay. MTT assay was performed as described previously.[22] MTT assay was used to determine the cell cytotoxicity and viability in human NSCLC cells. Cells (5 × 10^3 cells/well) were plated in 96-well plates and attached overnight. After the proper treatment, the MTT solution was added at 25 µL/well and incubated at 37 °C for 4 h. The formazan crystals were dissolved in 150 µL of DMSO, and the optical density (OD) was measured using a Microplate Reader at 490 nm. The cell viability was calculated by the following formula: viability = (average OD values of treatment wells/average OD values of vehicle control wells) × 100%. And half-maximal inhibitory concentration (IC50) values were determined by GraphPad Pro Prism 7.0.

[2] = tested on: A549 cells; assay: MTT cytotoxicity assay, A549 cells; format: cell-based; conditions: Homo sapiens; A549 cells, 48 h, MTT; read-out: IC50
Procedure: as §1

[3] = tested on: normal lung cells BEAS-2B; assay: MTT cytotoxicity assay, normal lung cells BEAS-2B; format: cell-based, human
Procedure: as §1

[4] = tested on: PC-9 cells; assay: Wound-healing migration assay; format: cell-based, human; conditions: 25, 50, 100 nM, 48 h
Procedure: The ability of cell migration was evaluated by wound-healing assay. The cells grew to 80–90% confluence in six-well plates and then scraped the cell monolayer at the centre of the wells with the tip of a sterile 10 μL pipette to form a clean, straight wound area. Then, the wells were washed with PBS to remove detached cells from the plates. After that, cells were cultured in serum-free RPMI medium with vehicle control or acetyl-bufalin (25, 50, 100 nM). The migration of cells to the wound area was photographed at the 0, 24 and 48 h timepoints with a microscope and imaging system (Leica, Wetzlar, Germany).

[5] = Pharmacokinetic study in rat plasma (LC-MS/MS); format: in vivo, S.D. rats
Procedure: For the pharmacokinetic study, female S.D. rats (body weight 200 ± 10 g) have fasted overnight with free access to water before the experiment. Twelve rats were randomly divided into four groups. The time schedule included eight timepoints, and three S.D. rats were sampled at each time-point. Bufalin and acetyl-bufalin were administered intravenously and intraperitoneally to the rats at the dose of 0.25 mg/kg and 2 mg/kg, respectively. The animals had free access to water during the experiment. Blood samples were collected from the retro-orbital plexus of each rat at 0.083, 0.25, 0.5, 1, 2, 4, 6, 8, 12, 24 h after administration. Plasma was separated from the blood after centrifugation at 6000×g for 10 min and frozen at −20 °C until analysis. In total, 20 µL of standard samples in duplicate, quality control samples in duplicate and rat plasma samples were mixed with 60 µL of ethyl acetate containing IS (200 ng/mL of tolbutamide, 50 ng/mL of propranolol and 500 ng/mL of Dic) in EP tubes. After the mixture was vortexed for 1 min, then centrifuged for 10 min (13,000 rpm, 4 °C), transferred 50 µL supernatant to a 96-well plate with 150 µL purred water, shacked for 10 min and finally injected 5 µL into liquid chromatographic-tandem mass spectrometry (LC-MS/MS) system for analysis.

[6] = tested on: STAT3; assay: STAT3 luciferase-report assay; format: cell-based, human; conditions: PC-9 and H460 cells, 0-200 nM, 12 h
Procedure: STAT3 activation was detected by the STAT3 luciferase reporter plasmid (PGLSTAT3-LUC), as was previously described.[23] Simply put, PC-9 and H460 cells were seeded in 24-well plates and incubated for 24 h before transfection. The cells were grown to different densities and co-transfected with pGLSTAT3-Luc and pRL-TK (a plasmid encoding Renilla luciferase) for 6 h using Lipofectamine 3000 (Invitrogen, Carlsbad, CA, USA). Finally, the cells were treated with different concentrations of […] for 12 h. Luciferase activity was assessed by SpectraMax ID3 (Molecular Devices, San Jose, CA, USA). The inhibition of STAT3 activity by acetyl-bufalin was calculated as the ratio between the value of firefly and Renilla luciferase activity. Each experiment was done in triplicate in three independent experiments.

[7] = tested on: P-STAT3; assay: Western blot of STAT3 phosphorylation; format: cell-based, human; conditions: H460, A549 and PC-9 cells, 12 h, concentration-dependently
Procedure: (§2) Tissue proteins were extracted with tissue protein lysate buffer. Cells were grown to different densities and extracted with cell protein lysate buffer. The protein was mixed with loading buffer and boiled for 10 min at 100 °C, then loaded and separated by 10% or 12% sodium dodecyl sulfate-polyacrylamide gel (SDS-PAGE) and then transferred onto a PVDF membrane blocking with 5% skim milk. The blots were incubated overnight with specific primary antibodies at 4 °C. On the second day, after washing with TBST (a mixture of tris-buffered saline (TBS) and Tween 20) three times, the […] membranes were incubated with horseradish peroxidase-conjugated secondary antibodies for 1 h. The immunoreactive bands were visualised with enhanced chemiluminescence reagent.

[8] = tested on: P-CDK9, CDK9, P-STAT3 and S2 RNAPII; assay: Western blot of CDK9/STAT3 pathway proteins; format: cell-based, human; conditions: H460 and PC-9 cells, 12 h; acetyl-bufalin 25-200 nM, SNS-032 200 nM
Procedure: as §2

Structure (SMILES): CC(=O)OC1CCC2(C)C(CCC3C2CCC2(C)C(c4ccc(=O)oc4)CCC32O)C1 (stereo not drawn) [acetyl-bufalin]
- IC50 [1]: 0.064 µM
- IC50 [2]: 0.0281 µM
- cytotoxic effect on normal cells [3]: low toxicity
- PC-9 cell migration [4]: markedly blocked
- elimination in blood ([5]; 0.25 mg/kg i.v. and 2 mg/kg i.p.): much slower than bufalin
- Cmax ([5]; acetyl-bufalin and bufalin formed from it, compared with bufalin dosing): smaller
- P-STAT3 activation (luciferase reporter) [6]: significantly inhibited
- P-STAT3 protein levels [7]: reduced
- P-CDK9, CDK9, P-STAT3 and S2 RNAPII expressions [8]: significantly dose-dependently decreased
